In one data set the target is T1, P2Y1 receptor (Homo sapiens, UniProt P47900).
T1 construct: hexahistidine; made in house; host or cells: baculovirus / Sf9 insect cells are named only as a preferred embodiment
In words: steady state GTP hydrolysis by purified P2Y1-R reconstituted with Gα11 and Gβ1γ2 in proteoliposomes. It is filed as biochemical. The procedure: Purified human P2Y1-R, Gα11, and Gβ1y2 were reconstituted in phospholipid vesicles.
In a glass tube, the following lipid solutions, which are made by solubilizing the lipids in chloroform, are combined: 11 μl PE (10 mg/ml), 7 μl PS (10 mg/ml), 4 μl cholesteryl hemisuccinate (2 mM). The mixture is dried under a stream of N2 or argon to prevent oxidation. The lipids are then dissolved in a buffer containing deoxycholate at 0.4% and sonicated to ensure complete solubilization. Proteins are added sequentially: 50 pmol of the appropriate G protein α subunit, 150 pmol Gβγ and 15 pmol of P2Y receptor. The mixture is passed over a sizing column to isolate the vesicles from the single components and the detergent. Isolated vesicles can then used for the GTP hydrolysis assays for which they can be diluted depending on their quality.
(§1) In a steady state embodiment of the present invention, vesicles are combined with agonists, GAP proteins γ-[^32P] labeled GTP, all in an appropriate buffer system. The assay is then incubated at between 20° C. and 30° C. for various times. P2Y receptor-promoted activity is measured as released ^32P, which is separated from [γ-^32P]GTP after the assay is halted by transfer to ice and addition of ice cold 5% slurry or activated charcoal in 20 mM phosphoric acid. See Biddlecome et al., J. Biol. Chem. 271: 7999-8007.
The P2Y1 receptor was expressed, purified and reconstituted into vesicles as described herein. GTP hydrolysis was measured by incubation of vesicles with 2 μM [γ^32P]GTP and quantitation of released [^32P]Pi.

Data set [1] deals with P2Y1 receptor/Gαq/β1γ2 vesicles. The experiment in a line: promotion of 2MeSADP-stimulated GTPase activity of P2Y1 receptor/Gαq/β1γ2 vesicles. It is filed as biochemical. The note with it: 1 μM 2MeSADP, FIG. 4 and 5. The procedure:
Purified P2Y1-R was reconstituted with Gαq and Gβ1y2.
FIG. 5 is a line graph depicting promotion of 2MeSADP-stimulated GTP hydrolysis by phospholipase C-β1. P2Y1-R was reconstituted with Gαq and Gβ1y2.
as §1
The selectivity of the P2Y1 receptor for coupling to various G proteins, and the selectivity of RGS proteins and phospholipase C-β isoenzymes for promoting GTPase activities were studied.

T1 sequence (P47900 whole entry): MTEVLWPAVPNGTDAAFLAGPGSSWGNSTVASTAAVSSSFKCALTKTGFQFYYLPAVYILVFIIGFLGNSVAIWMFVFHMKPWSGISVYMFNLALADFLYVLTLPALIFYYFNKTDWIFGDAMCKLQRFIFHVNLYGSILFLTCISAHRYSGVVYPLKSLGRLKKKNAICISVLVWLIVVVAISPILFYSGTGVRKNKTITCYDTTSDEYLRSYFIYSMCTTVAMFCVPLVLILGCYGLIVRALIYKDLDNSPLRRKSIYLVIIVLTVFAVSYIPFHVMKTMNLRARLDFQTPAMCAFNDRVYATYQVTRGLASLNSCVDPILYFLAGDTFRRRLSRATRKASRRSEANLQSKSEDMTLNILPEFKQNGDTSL

Consider “2-methylthioadenosine 5′-diphosphate [2MeSADP]”, for which the “stimulation of GTPase activity over basal” value at P2Y1 receptor (agonist together with RGS4, FIG. 2A) was “up to 100 fold”. Moreover, the “EC70 concentration of agonist” value at P2Y1 receptor (concentration used to identify antagonists) is reported as “approximately 50 nM”. For the same molecule, on P2Y1 receptor (in the presence of RGS4, FIG. 1), the “hydrolysis of GTP on addition of agonist” value is on record as “marked increase”. On to `Nc1ncnc2c1ncn2[C@@H]1O[C@H](COP(=O)(O)OP(=O)(O)OP(=O)(O)O)[C@@H](O)[C@H]1O` [ATP, adenosine 5′-triphosphate], for which the “agonist versus antagonist nature at the P2Y1 receptor” value at P2Y1 receptor (in the absence of receptor reserve) is given as “pure antagonist”.

B1: Phospholipase C-β1: phospholipase C-β isoenzyme stimulating GTPase activity of Gαq (protein, UniProt Q9NQ66 1-1216, looked up)
1-phosphatidylinositol …: MAGAQPGVHALQLKPVCVSDSLKKGTKFVKWDDDSTIVTPIILRTDPQGFFFYWTDQNKETELLDLSLVKDARCGRHAKAPKDPKLRELLDVGNIGRLEQRMITVVYGPDLVNISHLNLVAFQEEVAKEWTNEVFSLATNLLAQNMSRDAFLEKAYTKLKLQVTPEGRIPLKNIYRLFSADRKRVETALEACSLPSSRNDSIPQEDFTPEVYRVFLNNLCPRPEIDNIFSEFGAKSKPYLTVDQMMDFINLKQRDPRLNEILYPPLKQEQVQVLIEKYEPNNSLARKGQISVDGFMRYLSGEENGVVSPEKLDLNEDMSQPLSHYFINSSHNTYLTAGQLAGNSSVEMYRQVLLSGCRCVELDCWKGRTAEEEPVITHGFTMTTEISFKEVIEAIAECAFKTSPFPILLSFENHVDSPKQQAKMAEYCRLIFGDALLMEPLEKYPLESGVPLPSPMDLMYKILVKNKKKSHKSSEGSGKKKLSEQASNTYSDSSSMFEPSSPGAGEADTESDDDDDDDDCKKSSMDEGTAGSEAMATEEMSNLVNYIQPVKFESFEISKKRNKSFEMSSFVETKGLEQLTKSPVEFVEYNKMQLSRIYPKGTRVDSSNYMPQLFWNAGCQMVALNFQTMDLAMQINMGMYEYNGKSGYRLKPEFMRRPDKHFDPFTEGIVDGIVANTLSVKIISGQFLSDKKVGTYVEVDMFGLPVDTRRKAFKTKTSQGNAVNPVWEEEPIVFKKVVLPTLACLRIAVYEEGGKFIGHRILPVQAIRPGYHYICLRNERNQPLTLPAVFVYIEVKDYVPDTYADVIEALSNPIRYVNLMEQRAKQLAALTLEDEEEVKKEADPGETPSEAPSEARTTPAENGVNHTTTLTPKPPSQALHSQPAPGSVKAPAKTEDLIQSVLTEVEAQTIEELKQQKSFVKLQKKHYKEMKDLVKRHHKKTTDLIKEHTTKYNEIQNDYLRRRAALEKSAKKDSKKKSEPSSPDHGSSTIEQDLAALDAEMTQKLIDLKDKQQQQLLNLRQEQYYSEKYQKREHIKLLIQKLTDVAEECQNNQLKKLKEICEKEKKELKKKMDKKRQEKITEAKSKDKSQMEEEKTEMIRSYIQEVVQYIKRLEEAQSKRQEKLVEKHKEIRQQILDEKPKLQVELEQEYQDKFKRLPLEILEFVQEAMKGKISEDSNHGSAPLSLSSDPGKVNHKTPSSEELGGDIPGKEFDTPL
As to B1, the “promotion of GTPase activity (potency and efficacy in words)” value in data set [1] was “potent and efficacious stimulator”.

Source of the values: patent US20030175810A1, “Assay method and system for identification of P2Y receptor agonists and antagonists” (priority 2000, published 2003).
